The record followed here is patent publication US8957017B2, “Dipeptoid prodrugs and their use” (Bayer Intellectual Property GmbH, priority 2007, dated 2015).

A word on the thermodynamic solubility: it is the concentration in solution at equilibrium with solid.

The nature of data set [1]: Determination of the solubility in 5% strength aqueous dextrose solution. The following applies: saline or isotonic, thermodynamic from solid, room temperature, 24 h. It is filed as physicochemical. The method, then:
a) Determination of the Solubility:
The test substance is suspended in 5% strength aqueous dextrose solution. This suspension is shaken at room temperature for 24 h. After ultracentrifugation at 224 000 g for 30 min, the supernatant is diluted with DMSO and analysed by HPLC. A two-point calibration plot of the test compound in DMSO is used for quantification.
Agilent 1100 with DAD (G1315A), quat. Pump (G1311A), autosampler CTC HTS PAL, degasser (G1322A) and column thermostat (G1316A); column: Phenomenex Gemini C18, 5 μm, 50 mm×2 mm; temperature: 40° C.; eluent A: water/phosphoric acid pH 2, eluent B: acetonitrile; flow rate: 0.7 ml/min; gradient: 0-0.5 min 85% A, 15% B; ramp 0.5-3 min 10% A, 90% B; 3-3.5 min 10% A, 90% B; ramp 3.5-4 min 85% A, 15% B; 4-5 min 85% A, 15% B.
Agilent 1100 with DAD (G1315A), quat. pump (G1311A), autosampler CTC HTS PAL, degasser (G1322A) and column thermostat (G1316A); column: VDSoptilab Kromasil 100 C18, 3.5 μm, 60 mm×2.1 mm; temperature: 30° C.; eluent A: water+5 ml of perchloric acid/liter, eluent B: acetonitrile; flow rate: 0.75 ml/min; gradient: 0-0.5 min 98% A, 2% B; ramp 0.5-4.5 min 10% A, 90% B; 4.5-6 min 10% A, 90% B; ramp 6.5-6.7 min 98% A, 2% B; 6.7-7.5 min 98% A, 2% B.

Data set [2] in a line: Stability in buffer at various pH values. It is filed as physicochemical. The method, then:
b) Stability in Buffer at Various pH Values:
0.3 mg of the test substance is weighed into a 2 ml HPLC vial and 0.5 ml of acetonitrile or acetonitrile/DMSO (9:1) is added. The substance is dissolved by putting the sample vessel in an ultrasonic bath for about 10 seconds. Then 0.5 ml of the respective buffer solution is added, and the sample is again treated in the ultrasonic bath.
pH 2: 0.03 mol of citric acid, 0.061 mol of sodium chloride and 0.0082 mol of hydrochoric acid ad 1 liter of water;
pH 4: 1 liter of Millipore water is adjusted to pH 4.0 with 1 N hydrochloric acid;
pH 5: 0.096 mol of citric acid and 0.2 mol of sodium hydroxide ad 1 liter of water;
pH 6: 0.06 mol of citric acid and 0.16 mol of sodium hydroxide ad 1 liter of water;
pH 7.4: 90.0 g of sodium chloride, 13.61 g of potassium dihydrogen phosphate and 83.35 g of 1 N sodium hydroxide solution are made up to 1 liter with water; this solution is then further diluted 1:10 with Millipore water.
pH 8: 0.013 mol of borax and 0.021 mol of hydrochloric acid ad 1 liter of water.
5 μl portions of the test solution are analyzed by HPLC for their content of unchanged test substance, and of parent substance (A) produced, every hour over a period of 24 hours at 37° C. The percentage areas of the appropriate peaks are used for quantification.
The ratios of the peak areas (F) at the respective time points in relation to the peak areas at the starting time are shown in Table 2 for representative exemplary embodiments: […]

Data set [3] deals with heart rate of anesthetized rats. The experiment in a line: Influence on the heart rate of anesthetized rats. It counts as in vivo. The following applies: maximum decrease in the first 30 min after i.v. bolus of 100 μg/kg of (A) or equivalent dosages; anesthetized male Wistar rats. The procedure: f) Determination of the Influence on the Heart Rate of Anesthetized Rats:
Male Wistar rats with a body weight above 250 g are employed. In the night before the experiment, the animals receive no feed but still have free access to drinking water. Preparation and investigations are carried out under Trapanal® anesthesia (100 mg/kg i.p.). Injection and infusion take place through a catheter in the jugular vein, and the blood pressure is recorded via a catheter in the femoral artery (transducer: Braun, Melsungen). After the preparation, the animals are connected to a continuous infusion of physiological saline solution to compensate fluid losses. Test substance or placebo solution are administered as bolus after an equilibration time of about 1 h. Heart rate and arterial blood pressure are recorded during the equilibration and over a period of at least 30 min after the bolus injection with the aid of a digital evaluation program.
Table 4 lists the maximum heart rate decrease in the first 30 min after an i.v. bolus of 100 μg/kg of the active substance (A) or of equivalent dosages of representative exemplary embodiments: […]

A short description of data set [4]: i.v. pharmacokinetics in Wistar rats. It is filed as in vivo. Conditions: after i.v. bolus administration, male Wistar rats. The procedure: d) i.v. Pharmacokinetics in Wistar Rats:
(§1) On the day before administration of the substance, a catheter for obtaining blood is implanted in the jugular vein of the experimental animals (male Wistar rats, body weight 200-250 g) under Isofluran® anesthesia.
(§2) On the day of the experiment, a defined dose of the test substance is administered as solution into the tail vein using a Hamilton® glass syringe (bolus administration, duration of administration <10 s). Blood samples (8-12 time points) are taken through the catheter sequentially over the course of 24 h after administration of the substance. Plasma is obtained by centrifuging the samples in heparinized tubes. Acetonitrile is added to a defined plasma volume per time point to precipitate proteins. After centrifugation, test substance and, where appropriate, known cleavage products of the test substance in the supernatant are determined quantitatively using a suitable LC/MS-MS method.
The measured plasma concentrations are used to calculate pharmacokinetic parameters of the test substance and of the active ingredient compound (A) liberated therefrom, such as AUC, Cmax, T1/2 (half-life) and CL (clearance).

Data set [5] in a line: Oral pharmacokinetics in Wistar rats. It counts as in vivo. Conditions: after oral administration by gavage, male Wistar rats. The procedure:
e) Oral Pharmacokinetics in Wistar Rats:
as §1
as §2, with “stomach by gavage.” for “tail vein using a Hamilton® glass syringe (bolus administration, duration of administration <10 s).”
The measured plasma concentrations are used to calculate pharmacokinetic parameters of the test substance and of the active ingredient compound (A) liberated therefrom, such as AUC, Cmax, T1/2 (half-life).

Where a name gives a salt, the structure may show the parent alone. Where only a bound is given, the exact number is not on record here.

The compound `CC(C)[C@H](NC(=O)[C@@H](N)CCCCN)C(=O)OCCOc1ccc(-c2c(C#N)c(N)nc(SCc3csc(-c4ccc(Cl)cc4)n3)c2C#N)cc1` [Example 1, 2-{4-[2-Amino-6-({[2-(4-chlorophenyl)-1,3-thiazol-4-yl]methyl}thio)-3,5-dicyanopyridin-4-yl]-phenoxy}ethyl L-lysyl-L-valinate dihydrochloride] yielded a solubility (thermodynamic) at 24 h in data set [1] above 500 µg/mL. Also, the “% test substance after 4 h [F(t = 4 h) × 100/F(t = 0 h)]” value (“% test substance after 4 h” below) in data set [2] (pH 4, 37° C.) is 100%; in data set [2] (pH 6, 37° C.), 100%; in data set [2] (pH 7.4, 37° C.) it was 99%; in data set [2] (pH 8, 37° C.), 99%. The “% test substance after 24 h [F(t = 24 h) × 100/F(t = 0 h)]” value (“% test substance after 24 h” for short) in data set [2] (pH 4, 37° C.) turned out to be 100%; in data set [2] (pH 6, 37° C.) it was 100%; in data set [2] (pH 7.4, 37° C.), 96%; in data set [2] (pH 8, 37° C.) it was 90%. Moreover, the Heart rate decrease in data set [3] turned out to be 10%.

In turn, `N#Cc1c(N)nc(SCc2csc(-c3ccc(Cl)cc3)n2)c(C#N)c1-c1ccc(OCCOC(=O)CC[C@H](N)C(=O)NCCN)cc1` [Example 6, 2-{4-[2-Amino-6-({[2-(4-chlorophenyl)-1,3-thiazol-4-yl]methyl}thio)-3,5-dicyanopyridin-4-yl]-phenoxy}ethyl N-(2-aminoethyl)-L-α-glutaminate dihydrochloride] returned a solubility (thermodynamic) at 24 h in data set [1] above 500 µg/mL. The “% test substance after 4 h” value in data set [2] (pH 2, 37° C.) was found to be 100%; in data set [2] (pH 4, 37° C.), 100%; in data set [2] (pH 5, 37° C.) it was 96%; in data set [2] (pH 6, 37° C.), 78%; in data set [2] (pH 7.4, 37° C.), 8%. The “% test substance after 24 h” value in data set [2] (pH 2, 37° C.) is reported as 100%; in data set [2] (pH 4, 37° C.), 100%; in data set [2] (pH 5, 37° C.), 80%; in data set [2] (pH 6, 37° C.), 25%; in data set [2] (pH 7.4, 37° C.) it was 0%. In addition, the “detectability of test substance in plasma” value (from here on “detectability”) in data set [4] and in data set [5] was “no longer detectable in plasma even at the first measurement point” throughout. The Heart rate decrease in data set [3] is 17%.

In data set [1], `N#Cc1c(N)nc(SCc2csc(-c3ccc(Cl)cc3)n2)c(C#N)c1-c1ccc(OCCOC(=O)[C@@H](N)CCC(=O)NCCN)cc1` [Example 7, dihydrochloride] had a solubility (thermodynamic) at 24 h of 100 µg/mL. Further, in data set [2] (pH 4, 37° C.), the “% test substance after 4 h” value worked out at 100% and the “% test substance after 24 h” value was 98%. Also, in data set [2] (pH 7.4, 37° C.), the “% test substance after 4 h” value was 51% and the “% test substance after 24 h” value was 2%. In data set [4], the “detectability” value is reported as “no longer detectable in plasma even at the first measurement point”. Also, in data set [3], the Heart rate decrease was determined as 15%.

On to `N#Cc1c(N)nc(SCc2csc(-c3ccc(Cl)cc3)n2)c(C#N)c1-c1ccc(OCCOC(=O)[C@H](CO)NC(=O)[C@@H](N)CCCCN)cc1` [Example 5, 2-{4-[2-Amino-6-({[2-(4-chlorophenyl)-1,3-thiazol-4-yl]methyl}thio)-3,5-dicyanopyridin-4-yl]-phenoxy}ethyl L-lysyl-L-serinate dihydrochloride], for which the solubility (thermodynamic) at 24 h in data set [1] is above 500 µg/mL. For the same compound, the “% test substance after 4 h” value came to 100% in data set [2] (pH 4, 37° C.); 100% in data set [2] (pH 5, 37° C.); 95% in data set [2] (pH 6, 37° C.). In addition, the “% test substance after 24 h” value in data set [2] (pH 4, 37° C.) is reported as 100%; in data set [2] (pH 5, 37° C.), 98%; in data set [2] (pH 6, 37° C.) it was 70%. Also, the “detectability” value in data set [4] and in data set [5] was “no longer detectable in plasma even at the first measurement point” in each case. Moreover, the Heart rate decrease in data set [3] is reported as 12%.

`C[C@H](NC(=O)[C@@H](N)CCCCN)C(=O)OCCOc1ccc(-c2c(C#N)c(N)nc(SCc3csc(-c4ccc(Cl)cc4)n3)c2C#N)cc1` [Example 4, 2-{4-[2-Amino-6-({[2-(4-chlorophenyl)-1,3-thiazol-4-yl]methyl}thio)-3,5-dicyanopyridin-4-yl]-phenoxy}ethyl L-lysyl-L-alaninate dihydrochloride] showed a solubility (thermodynamic) at 24 h in data set [1] above 500 µg/mL. The “% test substance after 4 h” value in data set [2] (pH 4, 37° C.) turned out to be 100%; in data set [2] (pH 5, 37° C.), 100%; in data set [2] (pH 6, 37° C.), 97%; in data set [2] (pH 7.4, 37° C.) it was 48%. Also, the “% test substance after 24 h” value is 100% in data set [2] (pH 4, 37° C.); 98% in data set [2] (pH 5, 37° C.); 84% in data set [2] (pH 6, 37° C.); 2% in data set [2] (pH 7.4, 37° C.). Also, the “detectability” value in data set [4] and in data set [5] was “no longer detectable in plasma even at the first measurement point” throughout. For the same compound, in data set [3], the Heart rate decrease came to 19%.
